Patent publication US11401255B2, “Small molecule activators of Parkin enzyme function” (Mayo Foundation for Medical Education and Research, priority 2016, dated 2022)

How the values were obtained:
[1] = tested on: HeLa cells; test: Mitochondrial membrane potential (JC-10 assay); type: cell-based, human; settings: 5 μM, compared to DMSO control
Description: In order to exclude compounds that diminish the mitochondrial membrane potential, a JC-10 assay was used. HeLa cells were plated in 384-well plates and treated with different doses of CCCP or with 5 μM of Compounds 1, 2, 3, 4, and 31 as indicated for 2 h. The JC-10 dye was added to the live cells and cells are stained for 45 minutes. The plates were then measured with a fluorescent plate reader. JC-10 is a mitochondrial dye that emits red fluorescence in the presence of mitochondrial membrane potential. The fluorescence will change to green in the absence of mitochondrial membrane potential. […] Shown are average values of 3 independent experiments. Statistical analysis was performed by one-way ANOVA with Tukey's post-hoc test. ***, p<0.0005.
Mitochondrial depolarization was assessed using a JC10 assay kit (Sigma, MAK159). HeLa Parkin cells were seeded with […] in 20 μL volume into 384-well plates with clear bottom. The following day 5 μL of CCCP or compounds were added as 5× solutions. Equal volume of DMSO served as a negative control. Cells were incubated for 4 h before 12.5 μL of JC10 dye diluted in buffer A was added to the wells. One hour later the reaction was stopped with 12.5 μL of buffer B and the plate was measured immediately on a Spectramax M5 plate reader (Molecular devices) with bottom read using dual fluorescence (green: Ex 485 nm, Em 538 nm, cut-off at 515 nm; red: Ex 544 nm, Em 590 nm, cut-off at 570 nm). Mitochondrial depolarization was assessed by building the green to red ratio.

[2] = Metabolic stability in mouse liver microsomes; type: in vitro ADME; settings: 2 μM, 40 minutes, mouse hepatic microsomes
Description: Metabolic stability was defined as the percentage of parent compound lost over time in the presence of a metabolically active test system, such as rodent liver microsomal fractions.
Mouse hepatic microsomes were isolated from pooled (50), perfused livers of BALB/c male mice according to the standard protocol (Hill, J. R. in Current Protocols in Pharmacology 7.8.1-7.8.11, Wiley Interscience, 2003). The batch of microsomes was tested for quality control using imipramine, propranolol and verapamil as reference compounds. Microsomal incubations were carried out in 96-well plates in 5 aliquots of 40 μL each (one for each time point). Liver microsomal incubation medium contained PBS (100 mM, pH 7.4), MgCl2 (3.3 mM), NADPH (3 mM), glucose-6-phosphate (5.3 mM), glucose-6-phosphate dehydrogenase (0.67 units/mL) with 0.42 mg of liver microsomal protein per mL. Control incubations were performed replacing the NADPH-cofactor system with PBS. Compounds 1-4 and 31 (2 μM, final solvent concentration 1.6%) were each incubated with microsomes at 37° C. while shaking at […]. Incubations were performed in duplicates. Five time points over 40 minutes were analyzed. The reactions were stopped by adding 12 volumes of 90% acetonitrile-water to incubation aliquots, followed by protein sedimentation by centrifuging at 5500 rpm for 3 minutes. Supernatants were analyzed using the HPLC system coupled with tandem mass spectrometer. The elimination constant (kel), half-life (t1/2) and intrinsic clearance (Clint) were determined in a plot of ln(AUC) versus time, using linear regression analysis:
[formula] [formula] In order to indicate the quality of the linear regression analysis, the R (correlation coefficient) values were provided. In some cases, the last time point was excluded from the calculations to ensure acceptable logarithmic linearity of decay. C. Results

| Compound | effect on JC-10 (mitochondrial depolarization) [1] | metabolic stability [2] |
| --- | --- | --- |
| O=C(Cn1cnc2c1CCCC2)Nc1ccc(-c2ccccc2)cc1 [Compound 1] | did not show an effect | moderate stability |
| CC(C)c1nccn1CC(=O)Nc1ccc(-c2ccccc2)cc1 [Compound 2] | did not show an effect | moderate stability |
| CC(C)(C)Sc1ccc(NC(=O)Cn2ccnc2)cc1 [Compound 3] | did not show an effect | high metabolic stability |
| O=C(Cn1ccnc1-c1ccccn1)Nc1ccc(-c2ccccc2)cc1 [Compound 4] | did not show an effect | low stability |
| Cc1nc2c(c(N3CCCN(Cc4ccccc4)CC3)n1)CCCC2 [Compound 31] | significantly increased depolarization of mitochondria | low stability |
